Source: patent US20110212053A1, “PHOSPHATIDYLINOSITOL 3 KINASE INHIBITORS” (priority 2008, published 2011)
Where “and” joins values, the source holds several entries; their conditions need not be identical. Equal entries are not always repeated.

Legend:
PI3Kα(E545K) = target: T1, PI3Kα(E545K) (Homo sapiens, UniProt P42336, E545K); test: KinaseGLO luminescent PI3-kinase assay, mutant PI3Kα(E545K); assay type: biochemical
T1 construct: purchased Invitrogen or Millipore
Method: (§1) Compound Preparation: KinaseGLO assay: 30× stocks of inhibitors were prepared in DMSO. A 10 mM master stock was prepared and all other stocks were generated by serial dilution of this master stock in DMSO. The final concentration of DMSO in the kinase reaction was 3.3% (v/v).
(§2) PI3-Kinase Assay: The KinaseGLO® Luminescent Kinase Assay (Promega) is a luciferin-luciferase based luminescent assay that utilizes a proprietary thermostable luciferase to quantify the ATP remaining in a solution after a kinase reaction. The luminescent signal generated using KinaseGLO® directly correlates with ATP concentration, and therefore inversely correlates with kinase activity.
(§3) PI3K enzyme sample was thawed and diluted to 100 ng/μL in enzyme dilution buffer (50 mM HEPES, pH7.5, 3.0 mM MgCl2, 1.0 mM EGTA) and stored on ice. PI3Kα enzyme was diluted to a final concentration of 1 ng/μL in reaction buffer (for PI3Kα; 50 mM HEPES, pH7.5, 100 mM NaCl, 2.0 mM DTT, 3.0 mM MgCl2, 1.0 mM EGTA, 10 μM ATP) and gently mixed. 25 μL of this kinase reaction was then aliquoted into test wells in a Microfluor2 white 96-well plate (Thermo Scientific). As a preincubation step, 1 μl of 30× compound dilutions was added to the appropriate test wells to generate a ten point dose-response ranging from 0.0 μM-10 μM inhibitor. […] Luminescent signal was detected using a SpectraMax M5 (Molecular Devices). Maximal luminescence (no PI3K activity/maximal PI3K inhibition) was determined from reaction buffer plus SC-PI substrate only controls. The minimal signal (maximal PI3K activity) was determined by the 0.0 μM compound (DMSO only) control. IC50 values were calculated via non-linear regression using GraphPad Prism data analysis software.
(§4) Compounds were assayed against the Class I PI3Kα, PI3Kβ, PI3Kγ, PI3Kδ, PI3Kα(H1047R) and PI3Kα(E545K) in the KinaseGLO assay as described in Example 2, and against the Class IV PI3K mTOR in the radiometric assay. IC50 values (μM) were determined using 8-10 point half-log dose dilutions and calculated via nonlinear regression analysis using Graphpad Prism data analysis software.

PI3Kδ = target: T2, PI3Kδ (Homo sapiens, UniProt O00329); test: KinaseGLO luminescent PI3-kinase assay, PI3Kδ; assay type: biochemical
T2 construct: purchased Invitrogen or Millipore
T2 sequence (O00329 whole entry): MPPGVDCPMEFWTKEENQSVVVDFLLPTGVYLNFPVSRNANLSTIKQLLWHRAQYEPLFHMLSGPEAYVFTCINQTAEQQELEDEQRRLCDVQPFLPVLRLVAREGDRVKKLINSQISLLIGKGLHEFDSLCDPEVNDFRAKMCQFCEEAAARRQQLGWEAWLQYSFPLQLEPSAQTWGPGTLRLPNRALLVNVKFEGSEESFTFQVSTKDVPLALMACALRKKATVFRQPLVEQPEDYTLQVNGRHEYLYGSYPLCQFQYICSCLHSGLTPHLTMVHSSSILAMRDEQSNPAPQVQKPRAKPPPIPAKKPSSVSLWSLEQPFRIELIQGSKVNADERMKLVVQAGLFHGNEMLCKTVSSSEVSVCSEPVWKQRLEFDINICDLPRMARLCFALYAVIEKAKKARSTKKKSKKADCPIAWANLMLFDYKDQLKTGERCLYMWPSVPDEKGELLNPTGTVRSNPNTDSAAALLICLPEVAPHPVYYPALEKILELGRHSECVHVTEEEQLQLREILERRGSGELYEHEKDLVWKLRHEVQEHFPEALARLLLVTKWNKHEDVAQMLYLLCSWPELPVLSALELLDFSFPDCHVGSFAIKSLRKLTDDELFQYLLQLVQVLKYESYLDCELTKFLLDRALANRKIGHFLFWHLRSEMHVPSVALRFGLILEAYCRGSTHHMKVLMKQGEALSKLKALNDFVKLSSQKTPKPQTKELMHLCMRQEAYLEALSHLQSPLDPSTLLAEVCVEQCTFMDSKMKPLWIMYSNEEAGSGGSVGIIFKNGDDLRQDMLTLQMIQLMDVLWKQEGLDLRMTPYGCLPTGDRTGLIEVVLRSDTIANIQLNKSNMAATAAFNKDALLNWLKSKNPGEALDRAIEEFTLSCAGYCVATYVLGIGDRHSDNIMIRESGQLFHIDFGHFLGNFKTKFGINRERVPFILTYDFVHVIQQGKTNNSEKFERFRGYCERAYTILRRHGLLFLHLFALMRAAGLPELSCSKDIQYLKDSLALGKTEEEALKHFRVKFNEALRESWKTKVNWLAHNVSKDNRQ
T2 sequence (P27986 whole entry partner): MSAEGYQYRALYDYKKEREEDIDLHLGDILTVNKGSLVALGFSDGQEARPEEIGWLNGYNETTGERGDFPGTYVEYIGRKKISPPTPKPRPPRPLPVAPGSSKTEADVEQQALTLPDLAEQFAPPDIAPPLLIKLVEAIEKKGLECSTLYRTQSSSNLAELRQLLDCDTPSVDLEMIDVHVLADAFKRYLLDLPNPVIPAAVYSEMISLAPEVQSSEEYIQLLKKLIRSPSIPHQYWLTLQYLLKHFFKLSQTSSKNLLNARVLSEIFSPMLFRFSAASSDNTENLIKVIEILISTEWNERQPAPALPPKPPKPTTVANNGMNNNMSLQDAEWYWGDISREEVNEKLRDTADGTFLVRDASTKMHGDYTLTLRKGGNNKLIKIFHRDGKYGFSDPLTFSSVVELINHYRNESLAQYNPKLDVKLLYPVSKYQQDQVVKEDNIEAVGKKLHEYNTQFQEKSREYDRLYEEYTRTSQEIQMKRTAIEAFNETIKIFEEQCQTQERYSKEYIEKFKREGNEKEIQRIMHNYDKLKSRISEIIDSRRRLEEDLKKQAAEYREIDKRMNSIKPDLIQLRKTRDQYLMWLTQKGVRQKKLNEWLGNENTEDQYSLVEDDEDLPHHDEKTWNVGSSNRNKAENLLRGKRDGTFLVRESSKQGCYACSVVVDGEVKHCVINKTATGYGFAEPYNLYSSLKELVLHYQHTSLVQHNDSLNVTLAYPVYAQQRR
Method: as §1, §2, §3, §4

[1] = test system: p-AKT(S473) in U-87 MG cells; test: In-cell western blot (cytoblot) of AKT phosphorylation, U-87 MG; assay type: cell-based; details: Homo sapiens, read-out: IC50 against the p-AKT(S473) phosphorylation site
Method: Compound Preparation: Cell-based assays: 1000× stocks of inhibitors were prepared in DMSO. A 10 mM master stock was prepared and all other stocks were generated by serial dilution of the master stock in DMSO. The final concentration of DMSO in cell-based assays was 0.1% (v/v).
In-cell western blot (cytoblot) mechanistic assay; Measurement of AKT phosphorylation: The in-cell western blot assay is a quantitative 96-well immunocytochemistry assay using fixed cells. Phosphorylated AKT is detected and quantified via either enhanced chemiluminescence (ECL) or near infra-red (LI-COR) methods. Log-phase cells (10,000 A549, RKO or 30,000 U-87 MG) were plated in collagen coated, 96 well plates (Nunc) in 200 μL of growth medium (10% FBS/DMEM) and allowed to attach overnight at 37° C. in 5% CO2 incubator. Black 96 well plates were used for ECL assays. White, clear bottomed 96 well plates were used for LI-COR assays. The following day the growth medium was removed. For experiments using U-87 MG cells and RKO cells, the growth medium was replaced with 200 μL of fresh growth medium containing inhibitors dissolved in DMSO. PI3K inhibitors were dosed using half-log dilutions to generate an eight-point dose-response curve from 0.0 μM-10 μM for EC50 determinations, and the final concentration of DMSO in the test wells was 0.1% (v/v). The inhibitor treated cells were then incubated for 1 hour at 37° C. […]
After the inhibitor incubation phase (with or without IGF-1 stimulation), the medium was aspirated, the cells washed once with Tris-Buffered Saline (TBS) and then fixed in the wells by addition of 200 μL of cold 3.7% (v/v) formaldehyde diluted in TBS to test wells and incubated for 15 minutes at 4° C. […] The wells were then was washed four times with ice-cold TBS-T. Phospho-AKT luminescent signal was detected after a 1 minute incubation of test wells with 100 μL of ECL reagent using a SpectraMax M5 luminometer. (ii) Near-infrared fluorescence detection (LI-COR): After removal of the methanol, wells were blocked with 200 μL of LI-COR blocking buffer for 1 hour at room temperature. […]

T1 sequence (P42336 whole entry E545K): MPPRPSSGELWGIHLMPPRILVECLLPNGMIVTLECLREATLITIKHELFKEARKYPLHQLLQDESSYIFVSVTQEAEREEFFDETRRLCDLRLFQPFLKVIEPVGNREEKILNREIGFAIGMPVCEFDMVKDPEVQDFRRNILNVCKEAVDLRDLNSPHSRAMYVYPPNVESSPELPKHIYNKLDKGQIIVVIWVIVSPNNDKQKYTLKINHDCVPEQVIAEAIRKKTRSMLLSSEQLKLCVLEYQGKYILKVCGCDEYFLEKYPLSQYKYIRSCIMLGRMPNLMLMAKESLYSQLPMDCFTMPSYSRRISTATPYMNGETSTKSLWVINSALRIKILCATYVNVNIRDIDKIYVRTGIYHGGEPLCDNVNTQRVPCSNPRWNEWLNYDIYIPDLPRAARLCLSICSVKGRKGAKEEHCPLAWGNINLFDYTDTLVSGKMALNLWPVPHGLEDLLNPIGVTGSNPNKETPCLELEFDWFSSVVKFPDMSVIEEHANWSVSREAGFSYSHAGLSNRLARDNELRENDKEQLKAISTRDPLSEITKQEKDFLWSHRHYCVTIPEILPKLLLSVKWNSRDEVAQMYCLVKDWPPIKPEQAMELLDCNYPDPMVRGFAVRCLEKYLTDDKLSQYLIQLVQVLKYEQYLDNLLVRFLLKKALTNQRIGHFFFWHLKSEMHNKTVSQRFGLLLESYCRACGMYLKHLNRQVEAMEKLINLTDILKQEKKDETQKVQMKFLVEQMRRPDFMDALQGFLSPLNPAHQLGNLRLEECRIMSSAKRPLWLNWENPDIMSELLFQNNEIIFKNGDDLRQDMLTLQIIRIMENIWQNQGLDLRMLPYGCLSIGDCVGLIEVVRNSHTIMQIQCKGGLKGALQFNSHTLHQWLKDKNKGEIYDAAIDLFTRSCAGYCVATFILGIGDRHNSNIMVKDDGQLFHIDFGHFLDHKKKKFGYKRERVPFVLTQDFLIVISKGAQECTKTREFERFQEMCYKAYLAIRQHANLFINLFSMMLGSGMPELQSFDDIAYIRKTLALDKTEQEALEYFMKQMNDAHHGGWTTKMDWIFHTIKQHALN
T1 sequence (P27986 whole entry partner): as the sequence (P27986 whole entry partner) above

SMILES | IC50 (PI3Kα(E545K)) [nM] | IC50 (PI3Kδ) | IC50 [1] [nM]
CC(C)(C#N)c1ccc(-c2n[nH]c3cnc4ccc(-c5cnc6ccccc6c5)cc4c23)cc1 [Compound 1078, 2-methyl-2-(4-(8-(quinolin-3-yl)-3H-pyrazolo[3,4-c]quinolin-1-yl)phenyl)propanenitrile] | 15 to 55 | < 15 nM and 10 to 35 nM | 88
CC(C)(C#N)c1ccc(-c2n[nH]c3cnc4ccc(-c5cccnc5)cc4c23)cc1 [Compound 1107, 2-methyl-2-(4-(8-(pyridin-3-yl)-3H-pyrazolo[3,4-c]quinolin-1-yl)phenyl)propanenitrile] | < 10 | 10 to 35 nM | 54
CC(C)(C#N)c1ccc(-c2n[nH]c3cnc4ccc(-c5ccc6ncccc6c5)cc4c23)cc1 [Compound 1110, 2-methyl-2-(4-(8-(quinolin-6-yl)-3H-pyrazolo[3,4-c]quinolin-1-yl)phenyl)propanenitrile] | 15 to 55 | 10 to 35 nM | 81
